From US10869922B2 (priority 2016, dated 2020)

Experiments:
[1] = system: DC and CD8+T lymphocytes from OT-1 transgenic mouse; assay: DC/T lymphocyte co-culture experiment; format: cell-based
Text: Co-culture DC stimulated by high NaCl concentration and OVA antigen in vitro and CFSE-labeled CD8+T lymphocytes from OT-1 transgenic mouse for 2-3 days, observe the formation of CLUSTER under white light of the microscope, detect the proliferation of CFSE-labeled CD8+T lymphocytes by flow cytometry, and detect the secretion of IL2 in the collected culturesupernatant by ELISA.

DC = assay: Immunofluorescence co-localization experiment; format: cell-based, mouse; details: DC treated by high NaCl concentration, FIG. 10d
Text: Immunofluorescence co-localization experiment: the experimental group, ibid. Fix and permeabilize DC stimulated by high NaCl concentration and fluorescent labeled OVA in vitro, and stain with organelle fluorescent protein markers of proteasome and lysosome, and observe under the confocal microscopy.

[2] = DC treated by high NaCl concentration and OVA, co-culture 2-3 days, FIGS. 10a, b and c

Structure (SMILES): [Cl-].[Na+] [NaCl, sodium chloride]
- proliferation of specific CD8+T lymphocytes [1, 2]: induce
- secretion of IL2 [1, 2]: induce
- cross antigen presentation of DC ([1]; high NaCl concentration, FIG. 10): significantly improve
- degradation route of OVA in DC (DC): mostly degraded by proteasome rather than lysosome
